In US9783511B2, “Carbamate benzoxazine propionic acids and acid derivatives for modulation of RORgamma activity and the treatment of disease” (Merck Sharp & Dohme Corp., priority 2013, dated 2017):

Target: human RORgammaT-Ligand Binding Domain (LBD) (Homo sapiens (Human), UniProt P51449)
Experiment: RORγ-Ligand Binding Domain TR-FRET Assay (co-activator peptide SRC1_2 recruitment)
Type: biochemical
Conditions: HIS-tagged RORγ-LBD 3 nM, biotinylated SRC1 LXXLL peptide 100 nM, incubated overnight at 4° C., 665 nm/615 nm ratio
Method in brief: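 E. coli-expressed, Ni2+-purified HIS-tagged human RORγ-LBD at 3 nM final in 50 mM Tris pH 7.0, 50 mM KCl, 1 mM EDTA, 0.1 mM DTT, 100 μg/mL delipidated BSA. TR-FRET read-out of SRC1_2 co-activator peptide recruitment; compounds dispensed acoustically.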

Sequence of human RORgammaT-Ligand Binding Domain (LBD) (P51449 269-508): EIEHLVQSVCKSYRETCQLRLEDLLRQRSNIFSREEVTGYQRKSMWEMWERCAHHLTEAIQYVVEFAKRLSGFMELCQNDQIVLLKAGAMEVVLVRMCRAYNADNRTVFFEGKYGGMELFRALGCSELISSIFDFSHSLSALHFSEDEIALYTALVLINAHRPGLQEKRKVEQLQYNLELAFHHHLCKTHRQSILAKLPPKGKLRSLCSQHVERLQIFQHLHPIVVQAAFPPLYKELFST

Compound	IC50 [nM]
CC(C)(C[C@H]1CN(S(=O)(=O)c2c(Cl)nn3c2CCCC3)c2cc(NC(=O)OC(C)(C)C(F)(F)F)ccc2O1)C(=O)O [Example 12Y, 3-[(2S)-4-[(2-chloro-4,5,6,7-tetrahydropyrazolo[1,5-a]pyridin-3-yl)sulfonyl]-6-{[(2,2,2-trifluoro-1,1-dimethylethoxy)carbonyl]ami-no}-3,4-dihydro-2H-1,4-benzoxazin-2-yl]-2,2-dimethylpropanoic acid]	14.4
Cc1nn(C(F)F)cc1S(=O)(=O)N1C[C@H](CC(C)(C)C(=O)O)Oc2ccc(NC(=O)OC(C)(C)C(F)(F)F)cc21 [Example 12o, 3-[(2S)-4-{[1-(difluoromethyl)-3-methyl-1H-pyrazol-4-yl]sulfonyl}-6-{[(2,2,2-trifluoro-1,1-dimethylethoxy)carbonyl]ami-no}-3,4-dihydro-2H-1,4-benzoxazin-2-yl]-2,2-dimethylpropanoic acid]	14.9
CC(C)(OC(=O)Nc1ccc2c(c1)N(S(=O)(=O)c1cccc(C3CC3)c1)C[C@H](CC1(C(=O)O)CC1)O2)C(F)(F)F [Example 14B, (S)-1-((4-((3-cyclopropylphenyl)sulfonyl)-6-((((1,1,1-trifluoro-2-methylpropan-2-yl)oxy)carbonyl)amino)-3,4-dihydro-2H-benzo[b][1,4]oxazin-2-yl)methyl)cyclopropanecarboxy-lic acid]	17.5
CC(C)(OC(=O)Nc1ccc2c(c1)N(S(=O)(=O)c1cccc(C3CC3)c1)C[C@@H](CC1(C(=O)O)CC1)O2)C(F)(F)F [Example 14D, (R)-1-((4-((3-cyclopropylphenyl)sulfonyl)-6-((((1,1,1-trifluoro-2-methylpropan-2-yl)oxy)carbonyl)amino)-3,4-dihydro-2H-benzo[b][1,4]oxazin-2-yl)mehtyl)cyclopropanecarboxy-lic acid]	36.7
CC(C)(OC(=O)Nc1ccc2c(c1)N(S(=O)(=O)c1ccc(F)c(C(F)(F)F)c1)C[C@H]([C@H]1C[C@H]1C(=O)O)O2)C(F)(F)F [Example 22A, (1R,2S)-2-((S)-4-((4-fluoro-3-(trifluoromethyl)phenyl)sulfonyl)-6-((((1,1,1-trifluoro-2-methylpropan-2-yl)oxy)carbonyl)amino)-3,4-dihydro-2H-benzo[b][1,4]oxazin-2-yl)cyclopropanecarboxylic acid]	22.4
CC(C)(OC(=O)Nc1ccc2c(c1)N(S(=O)(=O)c1ccc(F)c(C(F)(F)F)c1)C[C@H]([C@@H]1C[C@@H]1C(=O)O)O2)C(F)(F)F [Example 22B, (1S,2R)-2-((S)-4-((4-fluoro-3-(trifluoromethyl)phenyl)sulfonyl)-6-((((1,1,1-trifluoro-2-methylpropan-2-yl)oxy)carbonyl)amino)-3,4-dihydro-2H-benzo[b][1,4]oxazin-2-yl)cyclopropanecarboxylic acid]	13.5
CC(C)(OC(=O)Nc1ccc2c(c1)N(S(=O)(=O)c1ccc(F)c(C(F)(F)F)c1)C[C@H]([C@@H]1C[C@H]1C(=O)O)O2)C(F)(F)F [Example 22C, (1R,2R)-2-((S)-4-((4-fluoro-3-(trifluoromethyl)phenyl)sulfonyl)-6-((((1,1,1-trifluoro-2-methylpropan-2-yl)oxy)carbonyl)amino)-3,4-dihydro-2H-benzo[b][1,4]oxazin-2-yl)cyclopropanecarboxylic acid]	8.71
CC(C)(OC(=O)Nc1ccc2c(c1)N(S(=O)(=O)c1ccc(F)c(C(F)(F)F)c1)C[C@H]([C@H]1C[C@@H]1C(=O)O)O2)C(F)(F)F [Example 22D, (1S,2S)-2-((S)-4-((4-fluoro-3-(trifluoromethyl)phenyl)sulfonyl)-6-((((1,1,1-trifluoro-2-methylpropan-2-yl)oxy)carbonyl)amino)-3,4-dihydro-2H-benzo[b][1,4]oxazin-2-yl)cyclopropanecarboxylic acid]	5.87
C[C@@H]1[C@H](CCC(=O)O)Oc2ccc(NC(=O)OC(C)(C)C(F)(F)F)cc2N1S(=O)(=O)c1cccc(C(F)(F)F)c1 [Example 25, 3-((2S,3R)-3-methyl-6-((((1,1,1-trifluoro-2-methylpropan-2-yl)oxy)carbonyl)amino)-4-((3-(trifluoromethyl)phenyl)sulfonyl)-3,4-dihydro-2H-benzo[b][1,4]oxazin-2-yl)propanoic acid]	10.1
CC(C)(OC(=O)Nc1cc(F)c2c(c1)N(S(=O)(=O)c1ccc(F)c(C(F)(F)F)c1)C[C@H](CCC(=O)O)O2)C(F)(F)F [Example 28, (S)-3-(8-fluoro-4-((4-fluoro-3-(trifluoromethyl)phenyl)sulfonyl)-6-((((1,1,1-trifluoro-2-methylpropan-2-yl)oxy)carbonyl)amino)-3,4-dihydro-2H-benzo[b][1,4]oxazin-2-yl)propanoic acid]	10.2

Next, values leading:

IC50 [nM]	Compound
17.7	COc1cc(S(=O)(=O)N2C[C@H](CCC(=O)O)Oc3ccc(NC(=O)OCC4(C(F)(F)F)CC4)cc32)ccc1F [Example 24A, 3-{(2S)-4-[(4-fluoro-3-methoxyphenyl)sulfonyl]-6-[({[1-(trifluoromethyl)cyclopropyl]methoxy}carbonyl)amino]-3,4-dihydro-2H-1,4-benzoxazin-2-yl}propanoic acid]
12	COc1cc(S(=O)(=O)N2C[C@H](CCC(=O)O)Oc3ccc(NC(=O)OC4(C(F)(F)F)CCC4)cc32)ccc1F [Example 24B, 3-{(2S)-4-[(4-fluoro-3-methoxyphenyl)sulfonyl]-6-[({[1-(trifluoromethyl)cyclobutyl]oxy}carbonyl)amino]-3,4-dihydro-2H-1,4-benzoxazin-2-yl}propanoic acid]
8200	COc1cc(S(=O)(=O)N2c3cc(NC(=O)OC(C)(C)C(F)(F)F)ccc3O[C@H](CC(C)(C)C(=O)O)[C@@H]2C)ccc1F [Example 27A, 3-[(2R,3S)-4-[(4-fluoro-3-methoxyphenyl)sulfonyl]-3-methyl-6-{[(2,2,2-trifluoro-1,1-dimethylethoxy)carbonyl]ami-no}-3,4-dihydro-2H-1,4-benzoxazin-2-yl]-2,2-dimethylpropanoic acid]
17.5	COc1cc(S(=O)(=O)N2c3cc(NC(=O)OC(C)(C)C(F)(F)F)ccc3O[C@@H](CC(C)(C)C(=O)O)[C@H]2C)ccc1F [Example 27B, 3-[(2S,3R)-4-[(4-fluoro-3-methoxyphenyl)sulfonyl]-3-methyl-6-{[(2,2,2-trifluoro-1,1-dimethylethoxy)carbonyl]ami-no}-3,4-dihydro-2H-1,4-benzoxazin-2-yl]-2,2-dimethylpropanoic acid]
5.71	Cc1cc(S(=O)(=O)N2C[C@H](CCC(=O)O)Oc3c(F)cc(NC(=O)OC(C)(C)C(F)(F)F)cc32)ccc1F [Example 29A, 3-[(2S)-8-fluoro-4-[(4-fluoro-3-methylphenyl)sulfonyl]-6-{[(2,2,2-trifluoro-1,1-dimethylethoxy)carbonyl]ami-no}-3,4-dihydro-2H-1,4-benzoxazin-2-yl]propanoic acid]
3.9	COc1cc(S(=O)(=O)N2C[C@H](CCC(=O)O)Oc3c(F)cc(NC(=O)OC(C)(C)C(F)(F)F)cc32)ccc1F [Example 29B, 3-[(2S)-8-fluoro-4-[(4-fluoro-3-methoxyphenyl)sulfonyl]-6-{[(2,2,2-trifluoro-1,1-dimethylethoxy)carbonyl]ami-no}-3,4-dihydro-2H-1,4-benzoxazin-2-yl]propanoic acid]
9.68	CCn1cc(S(=O)(=O)N2C[C@H](CCC(=O)O)Oc3c(F)cc(NC(=O)OC(C)(C)C(F)(F)F)cc32)c(Cl)n1 [Example 29C, 3-[(2S)-4-[(3-chloro-1-ethyl-1H-pyrazol-4-yl)sulfonyl]-8-fluoro-6-{[(2,2,2-trifluoro-1,1-dimethylethoxy)carbonyl]ami-no}-3,4-dihydro-2H-1,4-benzoxazin-2-yl]propanoic acid]
7.92	CCOc1nn(CC)cc1S(=O)(=O)N1C[C@H](CCC(=O)O)Oc2c(F)cc(NC(=O)OC(C)(C)C(F)(F)F)cc21 [Example 29D, 3-[(2S)-4-[(3-ethoxy-1-ethyl-1H-pyrazol-4-yl)sulfonyl]-8-fluoro-6-{[(2,2,2-trifluoro-1,1-dimethylethoxy)carbonyl]ami-no}-3,4-dihydro-2H-1,4-benzoxazin-2-yl]propanoic acid]
10.2	CC(C)(OC(=O)Nc1cc(F)c2c(c1)N(S(=O)(=O)c1cccc(C(F)(F)F)c1)C[C@H](CCC(=O)O)O2)C(F)(F)F [Example 29E, 3-[(2S)-8-fluoro-6-{[(2,2,2-trifluoro-1,1-dimethylethoxy)carbonyl]ami-no}-4-{[3-(trifluoromethyl)phenyl]sulfo-nyl}-3,4-dihydro-2H-1,4-benzoxazin-2-yl]propanoic acid]
5.7	CC(C)(OC(=O)Nc1cc(F)c2c(c1)N(S(=O)(=O)c1ccc(F)c(Cl)c1)C[C@H](CCC(=O)O)O2)C(F)(F)F [Example 29F, 3-[(2S)-4-[(3-chloro-4-fluorophenyl)sulfonyl]-8-fluoro-6-{[(2,2,2-trifluoro-1,1-dimethylethoxy)carbonyl]ami-no}-3,4-dihydro-2H-1,4-benzoxazin-2-yl]propanoic acid]
10.1	CC(C)(OC(=O)Nc1cc(F)c2c(c1)N(S(=O)(=O)c1ccnc(C(F)(F)F)c1)C[C@H](CCC(=O)O)O2)C(F)(F)F [Example 29H, 3-[(2S)-8-fluoro-6-{[(2,2,2-trifluoro-1,1-dimethylethoxy)carbonyl]ami-no}-4-{[2-(trifluoromethyl)pyridin-4-yl]sulfonyl}-3,4-dihydro-2H-1,4-benzoxazin-2-yl]propanoic acid]
9.01	CC(C)(OC(=O)Nc1cc(F)c2c(c1)N(S(=O)(=O)c1cncc(C(F)(F)F)c1)C[C@H](CCC(=O)O)O2)C(F)(F)F [Example 29i, 3-[(2S)-8-fluoro-6-{[(2,2,2-trifluoro-1,1-dimethylethoxy)carbonyl]ami-no}-4-{[5-(trifluoromethyl)pyridin-3-yl]sulfonyl}-3,4-dihydro-2H-1,4-benzoxazin-2-yl]propanoic acid]
